In publication PMC2410273, “Pharmacokinetic behaviour of the chemoprotectants BNP7787 and mesna after an i.v. bolus injection in rats” (British Journal of Cancer, 2004):
Like-named read-outs stand apart in the source and are kept apart here.

What was measured:
[1] = Pharmacokinetics and tissue distribution of BNP7787 and mesna after i.v. bolus of BNP7787 or mesna in WARD tumour-bearing rats; type: in vivo, Fischer rats; conditions: for AUC^5−60 in plasma, fold higher in rats than in nude mice: after equivalent dose of 1000 mg kg^−1 BNP7787, mouse data ref Boven et al, 2002; for AUC, fold lower than the corresponding value in kidney: all other sampled tissue compartments, after either BNP7787 or mesna; for Kp: 1000 mg/kg
Source text: The protocol was approved by the ethics committee for animal experiments of the Vrije Universiteit medical center in Amsterdam, The Netherlands. This committee strictly adheres to the standards required by the UKCCCR for the welfare of animals in neoplasia ([Workman et al, 1998]). Female Fischer rats (144–171 g) were obtained from Harlan (Indianapolis, USA) and were implanted subcutaneously in both flanks with fragments (2–3 mm diameter) of the WARD colorectal tumour ([Cao et al, 1994]). The pharmacokinetic study started at the time the tumours had reached a mean size of approximately 600 mm^3 (range 250–900 mm^3).
Tumour-bearing rats were treated with 1000 mg kg^−1 BNP7787 i.v. or 1000 mg kg^−1 mesna i.v. injected in the tail vein. Approximately 5 min before sample collection, the rats were anaesthetised by i.p. injection with 0.1 ml of a mixture of 75 mg ml^−1 ketamine plus 5 mg ml^−1 xylazine per 100 g weight. Blood was obtained by heart puncture at 0, 5, 15, 30, 45, 60, 90 and 150 min after i.v. administration of BNP7787 or mesna. Thereafter, the kidney, liver and tumour were removed by surgical dissection. In addition, at time points 0 and 30 min, skeletal muscle attached to the thighbone was also collected. At each time point three rats were killed.
Immediately after collection, the blood samples, which were collected in cooled EDTA-containing tubes (potassium-EDTA 1.6 mg EDTA ml^−1 blood; Sarstedt, Germany), were centrifuged at 4°C for 10 min at 4000 g. Plasma was separated and immediately deproteinised by adding one volume of sulphuric acid (0.33 M) and one volume of sodium hexametaphosphate (5 g/100 ml). After vortexing and centrifugation for 2 min at 12 000 g, the supernatant was stored in aliquots at −80°C until analysis. One volume of RBCs was washed with 1 volume of cold phosphate-buffered saline (PBS) of pH 7.4 containing sodium phosphate (10 mM) and NaCl (140 mM; Hospital Pharmacy, VUmc, Amsterdam, The Netherlands). This mixture was centrifuged for 2 min, 12 000 g at 4°C. After removing the PBS, the remaining RBCs were stored in liquid nitrogen until further processing.
The kidney, liver, tumour and skeletal muscle were washed with cold PBS before storage in liquid nitrogen. After collection of all the samples at the different time points, tissue homogenates of kidney, liver, tumour and skeletal muscle were prepared by pulverisation using a Braun Micro-dismembrator (Salm and Kipp; Breukelen, The Netherlands) according to the method described by [Peters et al (1986)]. An appropriate volume of aqueous EDTA (1 g l^−1) was added to the RBC and tissue homogenates to obtain a concentration of 100 mg tissue (wet weight) per ml. After sonification (10 min) and vortexing (10 min), the samples were subsequently deproteinised by adding 1 volume of cold sulphuric acid (0.33 M) and 1 volume of cold sodium hexametaphosphate (5 g/100 ml). After thorough vortexing and centrifugation (2 min at 8500 g at 4°C), the supernatants were stored in aliquots at −80° until analysis.
BNP7787 and mesna concentrations were determined selectively in one run using micro-HPLC with a dual electrochemical detector (dual ECD) ([Verschraagen et al, 2003b]). Briefly, citrate-NaOH buffer (40 μl of a mixture of 1 ml 5.0 M sodium hydroxide and 4 ml 0.5 M tri-sodium citrate buffer, pH 3.0) was added to 200 μl of deproteinised plasma, RBC or tissue sample, and the sample was injected into the micro-HPLC system which consisted of a Phenomenex C18 guard column (10 μm, 4 × 2.0 mm) and a Phenomenex Prodigy C18 ODS-3 column (5 μm, 100 × 1.0 mm; Bester, Amstelveen, The Netherlands).

[2] = set-up: method as in Boven et al, 2002; conditions: nude mice; after BNP7787 administration; ref Boven et al, 2002; cited from earlier work
[3] = tested on: antitumour activity of cisplatin; set-up: method as in Hausheer et al, 1998; conditions: tumour-bearing rats; given preceding cisplatin; ref Hausheer et al, 1998; cited from earlier work
[4] = tested on: antitumour activity of cisplatin; set-up: method as in Boven et al, 2002; conditions: tumour-bearing nude mice; given preceding cisplatin; ref Boven et al, 2002; cited from earlier work
[5] = set-up: method as in Hausheer et al, 1998; conditions: dogs, ref Hausheer et al, 1998; cited from earlier work
[6] = set-up: method as in Hausheer et al, 1998; conditions: rats, ref Hausheer et al, 1998; cited from earlier work
[7] = tested on: cisplatin-induced nephrotoxicity; set-up: method as in Hausheer et al, 1998; conditions: rats, ref Hausheer et al, 1998, cited from earlier work
[8] = tested on: cisplatin-induced nephrotoxicity; set-up: method as in Hausheer et al, 1998; conditions: dogs; plasma creatinine, BUN, renal histopathology; ref Hausheer et al, 1998; cited from earlier work
[9] = set-up: method as in Verschraagen et al, in press; conditions: cancer patients, ref Verschraagen et al, in press, cited from earlier work
[10] = tested on: cisplatin-induced toxicity; set-up: method as in Boven et al, 2002; conditions: nude mice; in the presence of 1000 mg kg^−1 BNP7787; ref Boven et al, 2002; cited from earlier work
[11] = tested on: intestinal and renal epithelial cells; set-up: method as in earlier work; conditions: isolated cells, via facilitated transport, ref Ormstad and Uehara, 1982, Ormstad et al, 1983, Brock et al, 1984, Ormstad and Ohno; cited from earlier work
[12] = set-up: method as in Ormstad et al, 1983; conditions: in vitro, ref Ormstad et al, 1983, cited from earlier work
[13] = 30 min after 1000 mg kg^−1 BNP7787 i.v.
[14] = 30 min after 1000 mg kg^−1 mesna i.v.
[15] = RBC, each 1000 mg kg^−1 i.v., P<0.01
[16] = after 1000 mg kg^−1 BNP7787 i.v., RBC
[17] = after 1000 mg kg^−1 BNP7787 i.v., kidney
[18] = after 1000 mg kg^−1 BNP7787 i.v., liver
[19] = after 1000 mg kg^−1 BNP7787 i.v., plasma
[20] = after 1000 mg kg^−1 BNP7787 i.v., tumour
[21] = after 1000 mg kg^−1 mesna i.v., kidney
[22] = after 1000 mg kg^−1 mesna i.v., plasma
[23] = after 1000 mg kg^−1 mesna i.v., tumour
[24] = female, Fischer, rat, all tissue compartments other than kidney / plasma, iv, after 1000 mg kg^−1 mesna i.v., all tissue compartments other than kidney, read-out: tissue–plasma AUC ratio
[25] = female, Fischer, rat, kidney / plasma, iv, after 1000 mg kg^−1 BNP7787 i.v., read-out: kidney–plasma AUC ratio
[26] = female, Fischer, rat, kidney / plasma, iv, after 1000 mg kg^−1 mesna i.v., read-out: kidney–plasma AUC ratio
[27] = female, Fischer, rat, liver / plasma, iv, after 1000 mg kg^−1 BNP7787 i.v., read-out: liver–plasma AUC ratio
[28] = female, Fischer, rat, red blood cells / plasma, iv, after 1000 mg kg^−1 BNP7787 i.v., read-out: RBC–plasma AUC ratio
[29] = female, Fischer, rat, tumour / plasma, iv, after 1000 mg kg^−1 BNP7787 i.v., read-out: tumour–plasma AUC ratio
[30] = plasma, each 1000 mg kg^−1 i.v., P<0.01

O=S(=O)(O)CCS [mesna, sodium 2-mercapto ethane sulphonate]
mean concentration (±s.d.) in skeletal muscle [1, 13]: 355.1 ± 113.0 nmol/g
mean concentration (±s.d.) in skeletal muscle [1, 14]: 665.1 ± 209.1 nmol/g
AUC, fold lower after BNP7787 than after mesna administration [1, 15]: 6.2 fold
time detectable [1, 16]: up to 90 min
time detectable [1, 17]: at least 150 min
time detectable [1, 18]: up to 90 min
time detectable [1, 19]: up to 90 min
time detectable [1, 20]: at least 150 min
time detectable ([1]; after 1000 mg kg^−1 mesna i.v., RBC): at least 150 min
time detectable [1, 21]: at least 150 min
time detectable ([1]; after 1000 mg kg^−1 mesna i.v., liver): at least 150 min
time detectable [1, 22]: at least 150 min
AUC of mesna relative to AUC of BNP7787 ([1]; after 1000 mg kg^−1 mesna i.v., plasma and all tissues sampled): at least seven-fold higher
time detectable [1, 23]: at least 150 min
AUC^5−60 in plasma, fold higher in rats than in nude mice [1]: approximately 5.2 fold
AUC of mesna in tumour relative to AUC of mesna in plasma ([1]; after mesna administration): at least three-fold lower
AUC, fold lower than the corresponding value in kidney [1]: at least 5.5 fold
Kp [1, 24]: < 0.3
Tmax ([1]; female, Fischer, rat, iv, after 1000 mg kg^−1 BNP7787 i.v., liver, read-out: time of maximal concentration in liver (converted)): 5 min
Kp [1, 25]: 4.5
Kp [1, 26]: 1.7
Kp [1, 27]: 0.5
Kp [1, 28]: 0.1
Kp [1, 29]: 0.7
AUC, fold lower after BNP7787 than after mesna administration ([1]; kidney, each 1000 mg kg^−1 i.v., P<0.01): 1.9 fold
AUC after BNP7787 administration compared with after mesna administration ([1]; liver, each 1000 mg kg^−1 i.v.): similar
AUC after BNP7787 administration compared with after mesna administration [1, 30]: five-fold lower
AUC of mesna in plasma as % of the AUC of BNP7787 ([1]; rats, after BNP7787 administration): approximately 50%
AUC, fold lower after BNP7787 than after mesna administration ([1]; tumour, each 1000 mg kg^−1 i.v., not statistically significant): 2.1 fold
AUC of mesna in plasma as % of the AUC of BNP7787 [2]: approximately 24%
effect on antitumour activity of cisplatin [3]: can reduce the number of complete and partial tumour remissions
effect on antitumour activity of cisplatin [4]: reduce the specific growth delay

O=S(=O)([O-])CCSSCCS(=O)(=O)[O-].[Na+].[Na+] [BNP7787, disodium 2,2′-dithio-bis-ethane sulphonate]
mean concentration (±s.d.) in skeletal muscle [1, 13]: 36.9 ± 26.0 nmol/g
mean concentration (±s.d.) in skeletal muscle [1, 14]: 30.3 ± 17.6 nmol/g
AUC (printed: concentration) after BNP7787 administration compared with after mesna administration [1, 15]: six-fold lower
AUC of BNP7787, fold lower than AUC of mesna [1, 16]: 11.4 fold
time detectable [1, 16]: 30 min
time of highest concentrations / peak levels ([1]; after 1000 mg kg^−1 BNP7787 i.v., all compartments): 5 min
AUC of BNP7787, fold lower than AUC of mesna [1, 17]: 2.7 fold
time detectable [1, 17]: 90 min
AUC of BNP7787, fold lower than AUC of mesna [1, 18]: 39.8 fold
time detectable [1, 18]: 30 min
AUC of BNP7787 relative to AUC of mesna [1, 19]: almost two-fold higher
time detectable [1, 19]: 90 min
AUC of BNP7787, fold lower than AUC of mesna [1, 20]: 5.1 fold
time detectable [1, 20]: 45 min
time detectable [1, 21]: at least 150 min
time detectable [1, 22]: at least 150 min
time detectable [1, 23]: at least 150 min
AUC^5−60 in plasma, fold higher in rats than in nude mice [1]: 2.7 fold
AUC, fold lower than the corresponding value in kidney [1]: at least 5.5 fold
Kp [1, 24]: < 0.3
Kp [1, 25]: 0.9
Kp [1, 26]: 2.1
Kp [1, 27]: 0.01
Kp [1, 28]: 0.01
Kp [1, 29]: 0.08
AUC after BNP7787 administration compared with after mesna administration ([1]; kidney, each 1000 mg kg^−1 i.v.): smaller, but not significant difference
AUC after BNP7787 administration compared with after mesna administration ([1]; liver, each 1000 mg kg^−1 i.v.): not significantly different
AUC after BNP7787 administration compared with after mesna administration [1, 30]: more than three-fold higher
AUC after BNP7787 administration compared with after mesna administration ([1]; tumour, each 1000 mg kg^−1 i.v.): not significantly different
nontoxic dose after i.v. administration [5]: 2000 mg/kg
nontoxic dose after i.v. administration [6]: 4000 mg/kg
cisplatin dose (mg kg^−1) tolerated when preceded by BNP7787 ([7]; 750 or 1500 mg kg^−1 BNP7787 i.v.): could be safely increased from 6 to 9
protection against cisplatin-induced nephrotoxicity ([7]; plasma creatinine, BUN, renal histopathology): completely protected
protection against cisplatin-induced nephrotoxicity [8]: completely protected
effect on antitumour activity of cisplatin [3]: did not reduce the antitumour activity of cisplatin
effect on antitumour activity of cisplatin [4]: did not reduce the antitumour activity of cisplatin
pharmacokinetic interaction with intact cisplatin ([9]; BNP7787 18.4–41 g m^−2): no mutual pharmacokinetic interaction
relatively nontoxic dose ([9]; phase I, BNP7787 preceding cisplatin): ≤ 41 g m^−2
weight loss on cisplatin dose increase from 5 to 8 mg kg^−1 [10]: weight loss increased
cellular uptake [11]: preferentially taken up in intestinal and renal epithelial cells
reduction of BNP7787 into mesna ([12]; cytosol fraction of the kidney cortex): large reduction
reduction of BNP7787 into mesna ([12]; plasma): very limited
